Values quoted from earlier work as cited in paper PMC4191920 (Journal of molecular biology, 2014).

Tested on: fibril formation
Conditions: at pH 7.4

[Nα-methyl-β-Ala26]Aβ42
effect on fibril formation: inhibit fibril formation
